Measurements taken from publication PMC6308302, “Identification of Pharmacokinetic Markers for Guanxin Danshen Drop Pills in Rats by Combination of Pharmacokinetics, Systems Pharmacology, and Pharmacodynamic Assays” (Frontiers in Pharmacology, 2018).
Marks after values point to notes of the source that are not given here.

How the values were obtained:
[1] = Aqueous solubility test (vortexing in water); assay type: physicochemical; details: thermodynamic from solid; determined, water, 25 °C, 1 atm
Description: Aqueous solubility (S) test of the 17 ingredients was performed by vortexing 10 mg of each ingredient in […] water in a test tube at ambient temperature and 1 atm. After vortexing for 5 min, if the solution is clear, the tested object will be considered as soluble in water. In silico assessment of the physicochemical properties governing permeation and intestinal absorption was carried out for the 17 ingredients studied. Theory aqueous solubility (S) was calculated with ALOGPS 2.1 online software via the Virtual Computational Chemistry Laboratory service (Chemoinformatics Group, Neuherberg, Germany) (VCCLAB^1). The octanol–water partition coefficient (cLogP), the total hydrogen bond count (donors and acceptors), and topological polar surface area (TPSA) were determined using the Molinspiration Property Calculator (Molinspiration Cheminformatics, Bratislava, Slovak Republic^2). Lipinski’s rule of 5 was used to predict the permeability of the compound ([Lipinski et al., 2001]).

Caco-2 cell monolayers = details: ref Lu et al., 2008, Liu et al., 2009, Hu et al., 2014, Bowles et al., 2017, cited from earlier work; for Papp(apical→basolateral) / Papp(basolateral→apical): Caco-2 cell monolayers, from literature; for apparent permeability in Caco-2 cell monolayers: previous results
[2] = Multiple component PK study in rat plasma after p.o. GDDP (HPLC-MS); details: for detection in rat plasma: GDDP 0.8 g/kg p.o., at 5, 10, 15, 30, 45, or 60 min, LOD 0.5–0.7 ng/mL

O=C(/C=C/c1ccc(O)c(O)c1)O[C@H](Cc1ccc(O)c(O)c1)C(=O)O [RA, rosmarinic acid]
solubility at 5 min [1]: > 10000 µg/mL | Papp(apical→basolateral) (Caco-2 cell monolayers): 0.523^a ×10^-6 cm/s | Papp(basolateral→apical) (Caco-2 cell monolayers): 0.550^a ×10^-6 cm/s

CC(C)=CCC[C@](C)(O[C@@H]1O[C@H](CO)[C@@H](O)[C@H](O)[C@H]1O)[C@H]1CC[C@]2(C)[C@@H]1[C@H](O)C[C@@H]1[C@@]3(C)CC[C@H](O)C(C)(C)[C@@H]3[C@@H](O[C@@H]3O[C@H](CO)[C@@H](O)[C@H](O)[C@H]3O[C@@H]3O[C@@H](C)[C@H](O)[C@@H](O)[C@H]3O)C[C@]12C [Re, ginsenoside Re]
solubility at 5 min [1]: > 10000 µg/mL | Papp(apical→basolateral) (Caco-2 cell monolayers): > 0.1^c ×10^-6 cm/s | Papp(basolateral→apical) (Caco-2 cell monolayers): > 0.1^c ×10^-6 cm/s | detection in rat plasma [2]: could be detected

O=C(O)/C=C/c1ccc(O)c(O)c1 [CA, caffeic acid]
solubility at 5 min [1]: > 10000 µg/mL | Papp(apical→basolateral) (Caco-2 cell monolayers): 4.35^b ×10^-6 cm/s | Papp(basolateral→apical) (Caco-2 cell monolayers): 7.74^b ×10^-6 cm/s | apparent permeability in Caco-2 cell monolayers (Caco-2 cell monolayers): ≥ 10^-6 cm/s

O=Cc1ccc(O)c(O)c1 [PCAL, protocatechuic aldehyde]
solubility at 5 min [1]: > 10000 µg/mL | Papp(apical→basolateral) (Caco-2 cell monolayers): 12.1^a ×10^-6 cm/s | Papp(basolateral→apical) (Caco-2 cell monolayers): 21.8^a ×10^-6 cm/s | apparent permeability in Caco-2 cell monolayers (Caco-2 cell monolayers): ≥ 10^-6 cm/s | detection in rat plasma [2]: could be detected

O=C(O)C(O)Cc1ccc(O)c(O)c1 (stereo not shown) [DSS, danshensu]
solubility at 5 min [1]: > 10000 µg/mL | detection in rat plasma at more than 15 min after administration ([2]; GDDP 0.4 and 0.8 g/kg B.W.): could not be detected | detection in rat plasma [2]: could be detected | plasma level ([2]; rats, GDDP 0.4 and 0.8 g/kg, more than 15 min after administration, below LOD): < 0.5 ng/mL

O=C(/C=C/c1ccc(O)c2c1[C@H](C(=O)O)[C@@H](c1ccc(O)c(O)c1)O2)O[C@H](Cc1ccc(O)c(O)c1)C(=O)O [LA, lithospermic acid]
solubility at 5 min [1]: > 10000 µg/mL | Papp(apical→basolateral) (Caco-2 cell monolayers): 0.0816^a ×10^-6 cm/s | Papp(basolateral→apical) (Caco-2 cell monolayers): 0.0413^a ×10^-6 cm/s

O=C(O)c1ccc(O)c(O)c1 [PCA, protocatechuic acid]
solubility at 5 min [1]: > 10000 µg/mL | Papp(apical→basolateral) (Caco-2 cell monolayers): 4.52^b ×10^-6 cm/s | Papp(basolateral→apical) (Caco-2 cell monolayers): 6.91^b ×10^-6 cm/s | apparent permeability in Caco-2 cell monolayers (Caco-2 cell monolayers): ≥ 10^-6 cm/s | detection in rat plasma [2]: could be detected

O=C(/C=C/c1ccc(O)c2c1C(C(=O)OC(Cc1ccc(O)c(O)c1)C(=O)O)C(c1ccc(O)c(O)c1)O2)OC(Cc1ccc(O)c(O)c1)C(=O)O (stereo not shown) [SAB, SA B]
solubility at 5 min [1]: > 10000 µg/mL | Papp(apical→basolateral) (Caco-2 cell monolayers): 0.0200^a ×10^-6 cm/s | Papp(basolateral→apical) (Caco-2 cell monolayers): 0.0377^a ×10^-6 cm/s

O=C(/C=C/c1ccc(O)c(O)c1/C=C/c1ccc(O)c(O)c1)OC(Cc1ccc(O)c(O)c1)C(=O)O (stereo not shown) [SAA, SA A]
solubility at 5 min [1]: > 10000 µg/mL | Papp(apical→basolateral) (Caco-2 cell monolayers): 0.0595^a ×10^-6 cm/s | Papp(basolateral→apical) (Caco-2 cell monolayers): 0.0554^a ×10^-6 cm/s
